Data from article PMC5842406, “Antidyslipidemic potential of a novel farnesoid X receptor antagonist in a hamster model of dyslipidemia: Comparative studies of other nonstatin agents” (Pharmacology Research & Perspectives, 2018).

How the values were obtained:
FXR [1] = target: T1, FXR (Homo sapiens, UniProt Q96RI1); assay: luciferase reporter gene assay, agonist mode; format: cell-based; details: read-out: ED50 values
T1 construct: gene NR1H4
T1 sequence (Q96RI1 1-486): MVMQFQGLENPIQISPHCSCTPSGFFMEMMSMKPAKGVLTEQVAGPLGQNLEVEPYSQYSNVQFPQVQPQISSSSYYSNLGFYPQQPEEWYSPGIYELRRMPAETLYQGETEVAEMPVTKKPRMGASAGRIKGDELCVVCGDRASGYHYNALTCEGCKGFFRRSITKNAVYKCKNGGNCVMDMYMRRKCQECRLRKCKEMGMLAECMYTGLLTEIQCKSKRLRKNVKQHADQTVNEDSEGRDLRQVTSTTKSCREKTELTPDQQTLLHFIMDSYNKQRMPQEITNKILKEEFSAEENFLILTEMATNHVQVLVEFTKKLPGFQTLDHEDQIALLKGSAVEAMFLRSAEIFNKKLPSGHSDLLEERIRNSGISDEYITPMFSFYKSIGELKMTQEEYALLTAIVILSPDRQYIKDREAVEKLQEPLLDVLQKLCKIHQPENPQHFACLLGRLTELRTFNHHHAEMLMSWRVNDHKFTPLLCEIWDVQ
Excerpt: luciferase reporter gene assay, agonist mode on FXR

RXRβ = tested on: T2, RXRβ; assay: nuclear receptor panel reporter assay, antagonist mode; format: cell-based, Homo sapiens; details: control ligand not told for RXRβ
T2 construct: gene RXRB; not described
Excerpt: nuclear receptor panel reporter assay, antagonist mode on RXRβ

PPARγ = target: T3, PPARγ (Homo sapiens, UniProt P37231); assay: nuclear receptor panel assay, agonist mode; format: cell-based; details: read-out: ED50 values
T3 construct: gene PPARG
T3 sequence (P37231 1-505): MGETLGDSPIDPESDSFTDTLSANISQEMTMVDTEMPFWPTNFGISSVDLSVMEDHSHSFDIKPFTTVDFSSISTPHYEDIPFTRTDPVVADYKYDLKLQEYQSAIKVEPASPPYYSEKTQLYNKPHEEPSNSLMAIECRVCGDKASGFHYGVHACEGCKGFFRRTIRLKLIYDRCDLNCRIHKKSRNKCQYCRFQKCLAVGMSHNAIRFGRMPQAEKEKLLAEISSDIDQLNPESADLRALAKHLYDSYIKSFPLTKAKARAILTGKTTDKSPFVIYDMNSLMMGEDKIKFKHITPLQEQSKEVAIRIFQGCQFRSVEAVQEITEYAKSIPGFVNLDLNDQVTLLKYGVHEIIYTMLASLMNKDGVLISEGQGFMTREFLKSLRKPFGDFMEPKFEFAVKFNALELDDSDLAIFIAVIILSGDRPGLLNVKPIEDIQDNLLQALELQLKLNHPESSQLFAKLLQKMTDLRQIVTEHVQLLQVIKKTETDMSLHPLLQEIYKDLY
Excerpt: nuclear receptor panel assay, agonist mode on PPARγ

FXR [2] = target: T1, FXR; assay: luciferase reporter gene assay, antagonist mode; format: cell-based
Excerpt: luciferase reporter gene assay, antagonist mode on FXR

- EC50 (FXR [1]): > 10 µM
- IC50 (RXRβ): > 10 µM
- EC50 (PPARγ): > 10 µM
- IC50 (FXR [2]): 0.0021 µM
Structure (SMILES): CC(C)(C)n1ncc(C(=O)Nc2ccc(Cl)c(CN3CCC(Oc4ccc(C(=O)O)cc4)CC3)c2)c1-c1ccc(F)cc1 [compound‐T1, 4‐({1‐[5‐({[1‐tert‐butyl‐5‐(4‐fluorophenyl)‐1H‐pyrazol‐4‐yl]carbonyl}amino)‐2‐chlorobenzyl]piperidin‐4‐yl}oxy)benzoic acid]
